Assay results taken from US11292788B2, “IL-17 and IFN-gamma inhibition for the treatment of autoimmune diseases and chronic inflammation” (Immunic AG, priority 2017, dated 2022).
Converted amounts (≈) assume the structure as drawn. Where two headings read alike, the source gives them in different places. Blank lines part the entries; values can stand above or below the compound they belong to.

Key:
[1] = Aqueous solubility in 50 mM phosphate buffer (HPLC/DAD); format: physicochemical; conditions: 50 mM phosphate buffer, 23 °C, pH 7.4, aqueous buffer, kinetic from dmso stock, aqueous solubility class; read-out: aq. solub.
Description: To achieve this, the samples (final volume 500 μl, 200 μM compound concentration) were incubated for 24 hours at 23° C. under continuous shaking at 1400 rpm (Thermomixer, Eppendorf) in aqueous phosphate buffers (pH 4.0, 6.0, 7.4 and 9.0) with a final DMSO concentration of 1%. To separate the undissolved compound from the solution, the samples were centrifuged (30 min 18000 g at 23° C.). Supernatants were measured via HPLC equipped with a UV detector and concentrations were calculated according to signals of a standard curve. The standard curve was prepared by diluting a stock solution of each compound (c=0.1 mg/ml; received by adding 10 μl of 20 mM compound in DMSO to 914 μl MeCN) in a certain amount of MeCN to cover a range of 0.1 to 200 μg/ml.

IL-17A = test: Cytokine assay: IL-17A production by human PBMC stimulated with PHA; format: cell-based; conditions: IC50 class, read-out: IL-17A Inhib.
Procedure, shortened: (§1)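 Human donor PBMC (1×10^5 cells/well) were activated with 2 μg/ml PHA and exposed to compounds for 48 h. Supernatant IL-17A, IL-17F and IFN-γ were measured by Luminex or ELISA. Screening used 10, 1, 0.1 and 0.01 μM; IC50 values came from semilogarithmic titrations.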

IL-17F = test: Cytokine assay: IL-17F production by human PBMC stimulated with PHA; format: cell-based; conditions: Homo sapiens, PBMC, IC50 class, read-out: IL-17F Inhib.
Procedure, shortened: as §1

[2] = Microsomal stability: incubation with human liver microsomes, residual parent compound by HPLC-MS/MS; format: in vitro ADME; conditions: up to 60 min, read-out: t1/2 hLM
Procedure, shortened: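 Compound at 1 μM final with 0.5 mg/ml pooled human liver microsomes and NADPH regenerating system, 0.1 M potassium phosphate pH 7.4, 0.4% DMSO, 37° C, sampled up to 60 min. Residual parent measured by HPLC-MS/MS; half-life and clearance from slope of remaining % of T0.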

INF-γ = test: Cytokine assay: INF-γ production by human PBMC stimulated with PHA; format: cell-based; conditions: Homo sapiens, PBMC, IC50 class, read-out: IFN-gamma Inhib.
Procedure, shortened: as §1

[3] = human liver microsomes 0.5 mg/ml, compound 1 μM, pH 7.4, 37° C.
[4] = pH 7.4, human liver microsomes, 1 μM compound, 0.5 mg/ml HLM, 37° C.

solubility at 24 h [1]: > 10 µM
IC50 (IL-17A; Homo sapiens, PBMC): 50 to 500 nM
IC50 (IL-17F): 50 to 500 nM
half-life at 1 μM [2, 4]: > 1.67 h
IC50 (INF-γ): 50 to 500 nM
SMILES: Cc1c(-c2onc(-c3c(F)cccc3Cl)c2-c2cnccn2)cnn1[C@H]1C[C@@](C)(O)C1 [Example 110, 3-{4-[3-(2-chloro-6-fluorophenyl)-4-(pyrazin-2-yl)-1,2-oxazol-5-yl]-5-methyl-1H-pyrazol-1-yl}-1-methylcyclobutan-1-ol]

solubility at 24 h [1]: > 10 µM
IC50 (IL-17A; Homo sapiens, PBMC): < 50 nM
IC50 (IL-17F): < 50 nM
half-life at 1 μM [2, 4]: > 1.67 h
IC50 (INF-γ): < 50 nM
SMILES: Cc1c(-c2onc(-c3c(F)cccc3Cl)c2-c2ncccn2)cnn1[C@H]1C[C@@](C)(O)C1 [Example 111, 3-{4-[3-(2-chloro-6-fluorophenyl)-4-(pyrimidin-2-yl)-1,2-oxazol-5-yl]-5-methyl-1H-pyrazol-1-yl}-1-methylcyclobutan-1-ol]

solubility at 24 h [1]: > 10 µM
IC50 (IL-17A; Homo sapiens, PBMC): < 50 nM
IC50 (IL-17F): < 50 nM
half-life at 1 μM [2, 4]: > 1.67 h
IC50 (INF-γ): < 50 nM
SMILES: COc1cccc(-c2noc(-c3cnn([C@H]4C[C@@](C)(O)C4)c3C)c2-c2ncccn2)c1Cl [Example 112, 3-{4-[3-(2-chloro-3-methoxyphenyl)-4-(pyrimidin-2-yl)-1,2-oxazol-5-yl]-5-methyl-1H-pyrazol-1-yl}-1-methylcyclobutan-1-ol]

solubility at 24 h [1]: > 10 µM
IC50 (IL-17A; Homo sapiens, PBMC): < 50 nM
IC50 (IL-17F): < 50 nM
half-life at 1 μM [2, 4]: > 1.67 h
IC50 (INF-γ): < 50 nM
SMILES: CC(C)(O)CCn1ncc(-c2onc(-c3c(F)cccc3Cl)c2-c2ncccn2)c1C(F)(F)F [Example 123, 4-{4-[3-(2-chloro-6-fluorophenyl)-4-(pyrimidin-2-yl)-1,2-oxazol-5-yl]-5-(trifluoromethyl)-1H-pyrazol-1-yl}-2-methylbutan-2-ol]

solubility at 24 h [1]: > 10 µM
IC50 (IL-17A; Homo sapiens, PBMC): 50 to 500 nM
IC50 (IL-17F): 50 to 500 nM
half-life at 1 μM [2, 4]: > 1.67 h
IC50 (INF-γ): 50 to 500 nM
SMILES: Cc1c(-c2onc(-c3ccccc3Cl)c2-c2ncccn2)cnn1CCC(C)(C)O [Example 126, 4-[4-[3-(2-chlorophenyl)-4-(pyrimidin-2-yl)-1,2-oxazol-5-yl]-5-methyl-1H-pyrazol-1-yl]-2-methylbutan-2-ol]

solubility at 24 h [1]: < 1 µM
IC50 (IL-17A; Homo sapiens, PBMC): < 50 nM
IC50 (IL-17F): < 50 nM
half-life at 1 μM [2, 4]: 0.0333 to 0.167 h
IC50 (INF-γ): ≥ 5000 nM
SMILES: CC(C)(O)CCn1ncc(-c2onc(-c3cccc(OCc4ccccc4)c3Cl)c2-c2ncccn2)c1C(F)(F)F [Example 128, 4-(4-{3-[3-(benzyloxy)-2-chlorophenyl]-4-(pyrimidin-2-yl)-1,2-oxazol-5-yl}-5-(trifluoromethyl)-1H-pyrazol-1-yl)-2-methylbutan-2-ol]

solubility at 24 h [1]: 3 to 9.99 µM (≈ 1.49 to 4.97 µg/mL)
IC50 (IL-17A; Homo sapiens, PBMC): < 50 nM
IC50 (IL-17F): < 50 nM
half-life at 1 μM [2, 4]: 0.667 to 1.67 h
IC50 (INF-γ): < 50 nM
SMILES: COc1cccc(-c2noc(-c3cnn([C@H]4C[C@@](C)(O)C4)c3C(F)(F)F)c2COC2CC2)c1Cl [Example 130, 3-(4-(3-(2-chloro-3-methoxyphenyl)-4-(cyclopropoxymethyl)isoxazol-5-yl)-5-(trifluoromethyl)-1H-pyrazol-1-yl)-1-methylcyclobutan-1-ol]

solubility at 24 h [1]: > 10 µM
IC50 (IL-17A; Homo sapiens, PBMC): < 50 nM
IC50 (IL-17F): < 50 nM
half-life at 1 μM [2, 4]: > 1.67 h
IC50 (INF-γ): < 50 nM
SMILES: CCOC(=O)c1c(-c2cccc(OC)c2Cl)noc1-c1cnn([C@H]2C[C@@](C)(O)C2)c1C(F)(F)F [Example 131, ethyl 3-(2-chloro-3-methoxyphenyl)-5-{1-[3-hydroxy-3-methylcyclobutyl]-5-(trifluoromethyl)-1H-pyrazol-4-yl}-1,2-oxazole-4-carboxylate]

solubility at 24 h [1]: 3 to 9.99 µM (≈ 1.51 to 5.01 µg/mL)
IC50 (IL-17A; Homo sapiens, PBMC): < 50 nM
IC50 (IL-17F): < 50 nM
half-life at 1 μM [2, 4]: 0.667 to 1.67 h
IC50 (INF-γ): < 50 nM
SMILES: CCOC(=O)c1c(-c2cccc(OC)c2Cl)noc1-c1cnn(CCC(C)(C)O)c1C(F)(F)F [Example 132, ethyl 3-(2-chloro-3-methoxyphenyl)-5-[1-(3-hydroxy-3-methylbutyl)-5-(trifluoromethyl)-1H-pyrazol-4-yl]-1,2-oxazole-4-carboxylate]

solubility at 24 h [1]: > 10 µM
IC50 (IL-17A; Homo sapiens, PBMC): 500 to 5000 nM
IC50 (IL-17F): 500 to 5000 nM
half-life at 1 μM [2, 4]: > 1.67 h
IC50 (INF-γ): 50 to 500 nM
SMILES: CCN(CC)CCCOc1cccc(-c2noc(-c3cnn(CCC(C)(C)O)c3C)c2-c2ncccn2)c1Cl [Example 147, 4-[4-(3-{2-chloro-3-[3-(diethylamino)propoxy]phenyl}-4-(pyrimidin-2-yl)-1,2-oxazol-5-yl)-5-methyl-1H-pyrazol-1-yl]-2-methylbutan-2-ol]

solubility at 24 h [1]: > 10 µM
IC50 (IL-17A; Homo sapiens, PBMC): < 50 nM
IC50 (IL-17F): < 50 nM
half-life at 1 μM [2, 4]: 0.167 to 0.666 h
IC50 (INF-γ): < 50 nM
SMILES: C[C@@H](O)Cn1ncc(-c2onc(-c3cccc(C(=O)N4CCCC4)c3Cl)c2-c2ccncn2)c1C(F)(F)F [Example 160, (R)-(2-chloro-3-(5-(1-(2-hydroxypropyl)-5-(trifluoromethyl)-1H-pyrazol-4-yl)-4-(pyrimidin-4-yl)isoxazol-3-yl)phenyl)(pyrrolidin-1-yl)methanone]

The remaining lines, values behind:

SMILES: C[C@]1(O)C[C@@H](n2ncc(-c3onc(-c4ccccc4Cl)c3COC3CC3)c2C(F)(F)F)C1 [Example 87, 3-{4-[3-(2-chlorophenyl)-4-(cyclopropoxymethyl)-1,2-oxazol-5-yl]-5-(trifluoromethyl)-1H-pyrazol-1-yl}-1-methylcyclobutan-1-ol]
solubility at 24 h [1]: > 10 µM
IC50 (IL-17A; Homo sapiens, PBMC): 50 to 500 nM
IC50 (IL-17F): < 50 nM
half-life at 1 μM [2, 3]: > 1.67 h
IC50 (INF-γ): < 50 nM

SMILES: CC(C)OCc1c(-c2c(F)cccc2Cl)noc1-c1cnn(C[C@@H](C)O)c1C(F)(F)F [Example 89, (2R)-1-{4-[3-(2-chloro-6-fluorophenyl)-4-[(propan-2-yloxy)methyl]-1,2-oxazol-5-yl]-5-(trifluoromethyl)-1H-pyrazol-1-yl}propan-2-ol]
solubility at 24 h [1]: > 10 µM
IC50 (IL-17A; Homo sapiens, PBMC): < 50 nM
IC50 (IL-17F): < 50 nM
half-life at 1 μM [2, 3]: 0.0333 to 0.167 h
IC50 (INF-γ): < 50 nM

SMILES: C[C@@H](O)Cn1ncc(-c2onc(-c3c(F)cccc3Cl)c2COC2CCC2)c1C(F)(F)F [Example 90, (2R)-1-(4-(3-(2-chloro-6-fluorophenyl)-4-(cyclobutoxymethyl)isoxazol-5-yl)-5-(trifluoromethyl)-1H-pyrazol-1-yl)propan-2-ol]
solubility at 24 h [1]: > 10 µM
IC50 (IL-17A; Homo sapiens, PBMC): < 50 nM
IC50 (IL-17F): < 50 nM
half-life at 1 μM [2, 3]: 0.0333 to 0.167 h
IC50 (INF-γ): < 50 nM

SMILES: Cc1c(-c2onc(-c3ccccc3Cl)c2-c2ncccn2)cnn1[C@H]1C[C@@](C)(O)C1 [Example 99, 3-(4-(3-(2-chlorophenyl)-4-(pyrimidin-2-yl)isoxazol-5-yl)-5-methyl-1H-pyrazol-1-yl)-1-methylcyclobutan-1-ol]
solubility at 24 h [1]: > 10 µM
IC50 (IL-17A; Homo sapiens, PBMC): 50 to 500 nM
IC50 (IL-17F): < 50 nM
half-life at 1 μM [2, 4]: > 1.67 h
IC50 (INF-γ): < 50 nM

SMILES: C[C@]1(O)C[C@@H](n2ncc(-c3onc(-c4ccccc4Cl)c3-c3cnccn3)c2C(F)(F)F)C1 [Example 101, 3-{4-[3-(2-chlorophenyl)-4-(pyrazin-2-yl)-1,2-oxazol-5-yl]-5-(trifluoromethyl)-1H-pyrazol-1-yl}-1-methylcyclobutan-1-ol]
solubility at 24 h [1]: 1 to 2.99 µM (≈ 0.476 to 1.42 µg/mL)
IC50 (IL-17A; Homo sapiens, PBMC): 500 to 5000 nM
IC50 (IL-17F): ≥ 5000 nM
half-life at 1 μM [2, 4]: > 1.67 h
IC50 (INF-γ): ≥ 5000 nM

SMILES: C[C@]1(O)C[C@@H](n2ncc(-c3onc(-c4ccccc4Cl)c3-c3ncccn3)c2C(F)(F)F)C1 [Example 102, 3-{4-[3-(2-chlorophenyl)-4-(pyrimidin-2-yl)-1,2-oxazol-5-yl]-5-(trifluoromethyl)-1H-pyrazol-1-yl}-1-methylcyclobutan-1-ol]
solubility at 24 h [1]: > 10 µM
IC50 (IL-17A; Homo sapiens, PBMC): < 50 nM
IC50 (IL-17F): < 50 nM
half-life at 1 μM [2, 4]: > 1.67 h
IC50 (INF-γ): < 50 nM

SMILES: C[C@]1(O)C[C@@H](n2ncc(-c3onc(-c4c(F)cccc4Cl)c3-c3ccncn3)c2C(F)(F)F)C1 [Example 104, 3-{4-[3-(2-chloro-6-fluorophenyl)-4-(pyrimidin-4-yl)-1,2-oxazol-5-yl]-5-(trifluoromethyl)-1H-pyrazol-1-yl}-1-methylcyclobutan-1-ol]
solubility at 24 h [1]: 1 to 2.99 µM (≈ 0.494 to 1.48 µg/mL)
IC50 (IL-17A): < 50 nM
IC50 (IL-17F): < 50 nM
half-life at 1 μM [2, 4]: > 1.67 h
IC50 (INF-γ): < 50 nM

SMILES: C[C@]1(O)C[C@@H](n2ncc(-c3onc(-c4ccccc4Cl)c3-c3ccncn3)c2C(F)(F)F)C1 [Example 106, 3-{4-[3-(2-chlorophenyl)-4-(pyrimidin-4-yl)-1,2-oxazol-5-yl]-5-(trifluoromethyl)-1H-pyrazol-1-yl}-1-methylcyclobutan-1-ol]
solubility at 24 h [1]: > 10 µM
IC50 (IL-17A; Homo sapiens, PBMC): < 50 nM
IC50 (IL-17F): < 50 nM
half-life at 1 μM [2, 4]: > 1.67 h
IC50 (INF-γ): < 50 nM
